In PubChem BioAssay AID256 (DTP/NCI, 2004):
Toxic doses and inconclusive results are not listed. Rule for the calls: active = survival T/C of 150% or more; inactive = T/C below 125% in these data.

Tested on: CD2F1 mice, L1210 leukemia ip, survival T/C
Test: NCI In Vivo Anticancer Drug Screen. Data for tumor model L1210 Leukemia (intraperitoneal) in CD2F1 (CDF1) mice
Conditions: higher = longer survival
Summary of the method: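 Each value reflects a quotient of treated over vehicle control outcomes in mice with a transplanted tumor.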

[1] = endpoint: mean survival time, dose: 100.0 mg/kg/injection, schedule: Q04DX002 (ip), vehicle: saline with Tween-80
[2] = endpoint: mean survival time, dose: 200.0 mg/kg/injection, schedule: Q04DX002 (ip), vehicle: saline with Tween-80
[3] = endpoint: mean survival time, dose: 400.0 mg/kg/injection, schedule: Q04DX002 (ip), vehicle: saline with Tween-80
[4] = endpoint: mean survival time, dose: 12.5 mg/kg/injection, schedule: Q01DX005 (ip), vehicle: distilled water + Tween-80
[5] = endpoint: mean survival time, dose: 25.0 mg/kg/injection, schedule: Q01DX005 (ip), vehicle: distilled water + Tween-80
[6] = endpoint: mean survival time, dose: 50.0 mg/kg/injection, schedule: Q01DX005 (ip), vehicle: distilled water + Tween-80
[7] = endpoint: mean survival time, dose: 100.0 mg/kg/injection, schedule: Q01DX005 (ip), vehicle: distilled water + Tween-80
[8] = endpoint: mean survival time, dose: 200.0 mg/kg/injection, schedule: Q01DX005 (ip), vehicle: distilled water + Tween-80
[9] = endpoint: mean survival time, dose: 25.0 mg/kg/injection, schedule: Q04DX003 (ip), vehicle: saline with Tween-80
[10] = endpoint: mean survival time, dose: 50.0 mg/kg/injection, schedule: Q04DX003 (ip), vehicle: saline with Tween-80
[11] = endpoint: mean survival time, dose: 100.0 mg/kg/injection, schedule: Q01DX001 (ip), vehicle: saline with Tween-80
[12] = endpoint: mean survival time, dose: 200.0 mg/kg/injection, schedule: Q01DX001 (ip), vehicle: saline with Tween-80
[13] = endpoint: mean survival time, dose: 400.0 mg/kg/injection, schedule: Q01DX001 (ip), vehicle: saline with Tween-80
[14] = endpoint: mean survival time, dose: 100.0 mg/kg/injection, schedule: Q01DX001 (ip), vehicle: saline
[15] = endpoint: mean survival time, dose: 200.0 mg/kg/injection, schedule: Q01DX001 (ip), vehicle: saline
[16] = endpoint: mean survival time, dose: 400.0 mg/kg/injection, schedule: Q01DX001 (ip), vehicle: saline
[17] = endpoint: mean survival time, dose: 100.0 mg/kg/injection, schedule: Q04DX003 (ip), vehicle: saline with Tween-80
[18] = endpoint: mean survival time, dose: 200.0 mg/kg/injection, schedule: Q04DX003 (ip), vehicle: saline with Tween-80
[19] = endpoint: mean survival time, dose: 400.0 mg/kg/injection, schedule: Q04DX003 (ip), vehicle: saline with Tween-80

Measured: T/C

O=[N+]([O-])Nc1ccc(C(c2ccc(N[N+](=O)[O-])cc2)c2ccc([N+](=O)[O-])cc2)cc1
inactive: [1] 95 % of control | [2] 88 % of control | [3] 88 % of control

CCOC(=O)CCCCCSc1n[nH]c(=O)[nH]c1=O
inactive: [4] 102 % of control | [5] 103 % of control | [6] 92 % of control | [7] 102 % of control | [8] 102 % of control

OC(c1ccccc1)(c1ccc2ccccc2n1)c1cccs1 (stereo unspecified)
inactive: endpoint: mean survival time, dose: 100.0 mg/kg/injection, schedule: Q04DX003 (ip), vehicle: saline 102 % of control | endpoint: mean survival time, dose: 200.0 mg/kg/injection, schedule: Q04DX003 (ip), vehicle: saline 90 % of control | endpoint: mean survival time, dose: 400.0 mg/kg/injection, schedule: Q04DX003 (ip), vehicle: saline 90 % of control

CN1CCCN(C)C1c1ccccc1O
inactive: endpoint: mean survival time, dose: 12.5 mg/kg/injection, schedule: Q01DX009 (ip), vehicle: saline with Tween-80 105 % of control | endpoint: mean survival time, dose: 25.0 mg/kg/injection, schedule: Q01DX009 (ip), vehicle: saline with Tween-80 102 % of control | endpoint: mean survival time, dose: 50.0 mg/kg/injection, schedule: Q01DX009 (ip), vehicle: saline with Tween-80 107 % of control

NC(=S)N/N=C/c1c(O)ccc2ccccc12
inactive: endpoint: mean survival time, dose: 12.5 mg/kg/injection, schedule: Q04DX003 (ip), vehicle: saline with Tween-80 98 % of control | [9] 95 % of control | [10] 95 % of control

CC1=C/C(=N/Nc2ccc([N+](=O)[O-])cc2[N+](=O)[O-])CC(C)(C)C1
inactive: [11] 92 % of control | [12] 90 % of control | [13] 95 % of control

FC(F)(F)C1(C(F)(F)F)C/C(=N/Nc2ccccc2)CO1
inactive: endpoint: mean survival time, dose: 100.0 mg/kg/injection, schedule: Q04DX003 (ip), vehicle: other 101 % of control | endpoint: mean survival time, dose: 200.0 mg/kg/injection, schedule: Q04DX003 (ip), vehicle: other 101 % of control | endpoint: mean survival time, dose: 400.0 mg/kg/injection, schedule: Q04DX003 (ip), vehicle: other 101 % of control

Nc1cc(=S)c2nnn(C3OC(CO)C(O)C3O)c2[nH]1 (stereo unspecified)
inactive: endpoint: mean survival time, dose: 25.0 mg/kg/injection, schedule: Q01DX009 (ip), vehicle: water 100 % of control | endpoint: mean survival time, dose: 50.0 mg/kg/injection, schedule: Q01DX009 (ip), vehicle: water 104 % of control | endpoint: mean survival time, dose: 100.0 mg/kg/injection, schedule: Q01DX009 (ip), vehicle: water 93 % of control | endpoint: mean survival time, dose: 200.0 mg/kg/injection, schedule: Q01DX009 (ip), vehicle: water 86 % of control | endpoint: mean survival time, dose: 400.0 mg/kg/injection, schedule: Q01DX009 (ip), vehicle: water 89 % of control

c1ccc(COCC2OC(C3N(c4ccccc4)CCN3c3ccccc3)C(OCc3ccccc3)C2OCc2ccccc2)cc1 (stereo unspecified)
inactive: [4] 102 % of control | [5] 98 % of control | [6] 102 % of control | [7] 97 % of control | [8] 92 % of control

COC1OC(CCl)C(Cl)C2OS(=O)(=O)OC12 (stereo unspecified)
inactive: [14] 97 % of control | [15] 100 % of control | [16] 96 % of control

COC(=O)c1ccc(NC(=O)Cc2c(O)c3c(c(C)c2OC)COC3=O)cc1N
inactive: endpoint: mean survival time, dose: 100.0 mg/kg/injection, schedule: Q04DX002 (ip), vehicle: saline 100 % of control | endpoint: mean survival time, dose: 200.0 mg/kg/injection, schedule: Q04DX002 (ip), vehicle: saline 112 % of control | endpoint: median survival time, dose: 100.0 mg/kg/injection, schedule: Q04DX002 (ip), vehicle: saline 102 % of control | endpoint: median survival time, dose: 200.0 mg/kg/injection, schedule: Q04DX002 (ip), vehicle: saline 106 % of control

CCC12CN3CCc4c([nH]c5ccccc45)C(C(=O)OC)(c4cc5c(cc4OC)N(C)C4C(O)(C(=O)OC)C(OC(C)=O)C6(CC)C=CCN7CCC54C76)CC(C3)C1O2.CI.CO.[I][Hg][I] (stereo unspecified)
inactive: [14] 100 % of control

O=[N+]([O-])c1ccc(/C(CBr)=N/N2CCCCCC2)cc1
inactive: [14] 91 % of control | [15] 92 % of control | [16] 95 % of control

CCCCCCCC(=O)/C=C/Sc1n[nH]c(=O)[nH]c1=O
inactive: [4] 94 % of control | [5] 102 % of control | [6] 107 % of control

CNC(=O)Oc1c(Cl)c(C(Cl)(Cl)Cl)nc2ccccc12
inactive: [9] 96 % of control | [10] 97 % of control | [17] 89 % of control

Cc1cc[n+](C)c(-c2ccccc2)c1
inactive: endpoint: mean survival time, dose: 6.25 mg/kg/injection, schedule: Q01DX009 (ip), vehicle: saline sonified 100 % of control | endpoint: mean survival time, dose: 12.5 mg/kg/injection, schedule: Q01DX009 (ip), vehicle: saline sonified 101 % of control | endpoint: mean survival time, dose: 25.0 mg/kg/injection, schedule: Q01DX009 (ip), vehicle: saline sonified 109 % of control

O=C(N/N=C/c1ccc2c(c1)CCC2)c1cc2ccccc2cc1O
inactive: [11] 92 % of control | [17] 95 % of control | [12] 92 % of control | [18] 94 % of control | [13] 87 % of control | [19] 89 % of control

O.O.[Cl][Pt+2][Cl].[NH-]CC[NH-]
inactive: endpoint: median survival time, dose: 3.12 mg/kg/injection, schedule: Q04DX003 (ip), vehicle: distilled water + Tween-80 101 % of control | endpoint: median survival time, dose: 6.25 mg/kg/injection, schedule: Q04DX003 (ip), vehicle: distilled water + Tween-80 102 % of control | endpoint: median survival time, dose: 12.5 mg/kg/injection, schedule: Q04DX003 (ip), vehicle: distilled water + Tween-80 111 % of control | endpoint: median survival time, dose: 25.0 mg/kg/injection, schedule: Q04DX003 (ip), vehicle: distilled water + Tween-80 108 % of control | endpoint: median survival time, dose: 50.0 mg/kg/injection, schedule: Q04DX003 (ip), vehicle: distilled water + Tween-80 105 % of control

COc1cc(C)c(Br)c(OC)c1
inactive: [17] 92 % of control | [18] 99 % of control | [19] 99 % of control

CCOC(=O)Nc1cc2c(c(N)n1)N=C(c1ccc(Cl)cc1Cl)CN2
inactive: endpoint: median survival time, dose: 3.12 mg/kg/injection, schedule: Q01DX009 (ip), vehicle: saline with Tween-80 106 % of control | endpoint: median survival time, dose: 6.25 mg/kg/injection, schedule: Q01DX009 (ip), vehicle: saline with Tween-80 112 % of control | endpoint: median survival time, dose: 12.5 mg/kg/injection, schedule: Q01DX009 (ip), vehicle: saline with Tween-80 114 % of control

CCc1ccccc1N1CCN(C(=O)c2cc(OC)c(OC)c(OC)c2)CC1
inactive: endpoint: mean survival time, dose: 100.0 mg/kg/injection, schedule: Q01DX009 (ip), vehicle: acetone 118 % of control | endpoint: mean survival time, dose: 150.0 mg/kg/injection, schedule: Q01DX009 (ip), vehicle: acetone 124 % of control | endpoint: mean survival time, dose: 225.0 mg/kg/injection, schedule: Q01DX009 (ip), vehicle: acetone 90 % of control

O=S(=O)(OC1CCCCC1Cl)c1ccc(Br)cc1 (stereo unspecified)
inactive: [17] 102 % of control | [18] 94 % of control | [19] 94 % of control

C[n+]1ccc(/C=C\Nc2ccccn2)cc1
inactive: endpoint: mean survival time, dose: 75.0 mg/kg/injection, schedule: Q01DX001 (ip), vehicle: saline 103 % of control | endpoint: mean survival time, dose: 150.0 mg/kg/injection, schedule: Q01DX001 (ip), vehicle: saline 108 % of control

COc1c(C)c2c(c(OC(C)=O)c1CC(=O)C(C)(O)CCC(=O)O)C(=O)OC2 (stereo unspecified)
inactive: [1] 103 % of control | [2] 96 % of control | [3] 112 % of control
